Drawing on ChEMBL document CHEMBL1201862, “PubChem BioAssay data set” (2004), this text covers EC50, AC50 and IC50 for three molecules.

The target in one experiment is T1, Streptokinase A (Streptococcus pyogenes serotype M1, UniProt P10520).
T1 sequence (P10520 whole entry): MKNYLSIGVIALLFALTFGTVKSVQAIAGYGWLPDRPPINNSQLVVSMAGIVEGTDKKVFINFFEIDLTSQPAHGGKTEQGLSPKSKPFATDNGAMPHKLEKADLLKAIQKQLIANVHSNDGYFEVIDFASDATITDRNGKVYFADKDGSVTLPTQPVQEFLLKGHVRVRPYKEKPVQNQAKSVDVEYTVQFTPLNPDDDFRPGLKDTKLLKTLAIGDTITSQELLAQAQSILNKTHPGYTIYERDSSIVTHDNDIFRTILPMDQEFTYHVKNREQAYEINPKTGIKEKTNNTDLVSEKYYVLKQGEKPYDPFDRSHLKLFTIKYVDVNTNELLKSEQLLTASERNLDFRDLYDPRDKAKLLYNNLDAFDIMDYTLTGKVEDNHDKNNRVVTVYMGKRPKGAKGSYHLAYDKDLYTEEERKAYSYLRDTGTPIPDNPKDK
In words: viability-normalized secreted streptokinase activity reduction – plasminogen activation absorbance, OD405, dose response (AID 1914).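 Further: secreted streptokinase activity via plasminogen activation per viability signal from cell pellet.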 The format is functional, Streptococcus pyogenes M1 GAS.

Experiment [1] can be described thus: Trypanosoma cruzi growth suppression in host cells – NIH3T3 host cells, beta-gal luminescence, confirmation (AID 2044).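 Further: intracellular parasites grown in NIH/3T3 mouse fibroblasts as host cells; luminescent beta-galactosidase reporter signal from transgenic T. cruzi replicating inside host cells; inhibitors lower the luminescence signal.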 The format is functional, cell-based.
Experiment [2] in a line: NIH3T3 cell viability loss – ATP luminescence, mouse fibroblasts, counter-screen, dose response (AID 2010).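 Further: cells exposed to compound for about 90 hours before reading.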 It counts as functional, cell-based. (A counterscreen serves to expose hits that act by an unwanted route or on another target.)
Another experiment relates to Streptococcus. Nature of the experiment: GAS UMAA2166 growth inhibition – luminescence, BacTiterGlo, counter-screen for streptokinase expression inhibitor project, dose response (AID 1915).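 Further: potency for reduction of bacterial viability or growth.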 The format is functional, organism-based.
Experiment [3] in a line: cells. The format is functional, cell-based.
Experiment [4] is described as follows: cells. The format is functional, cell-based. This is another data set of the same source.
For experiment [5], the target named is Heat shock protein HSP 90-alpha (Homo sapiens, UniProt P07900). It counts as functional, organism-based.
A further experiment concerns Jurkat. Nature of the experiment: SAR Analysis of small molecule inhibitors of T-cell specific antigen receptor-induced NF-kB activation in a Jurkat cell line using a luminescence assay - Set 2. [Related pubchem assays (depositor defined):AID435003, AID435012, AID465]. The format is functional, cell-based. To be noted: Homo sapiens.
Experiment [6] can be described thus: loss of viability in HepG2 cells – cell-based, CellTiter-Glo, cherry-picked, cytotoxicity control for Shn3 inhibitor project, dose response (AID 624134). It counts as functional. In general terms: ATP-based viability assays read luminescence as a measure of living cells.

Activity calls are given as the source filed them. For most assays here, no stated cut-off is given here; in the data, actives have a measured EC50 and inactives only a lower limit.

The EC50 is the concentration giving half of the maximal effect. As for `Cc1ccc(-n2sc3ccccc3c2=O)cc1`, the concentration giving a half-maximal response (EC50) is > 150 µM (not active) at Streptokinase A, 0.361 µM (active) in experiment [1], 9.71 µM (active) in [2] and 3.63 µM (active) with Streptococcus.

For orientation: AC50 means the concentration at which the activity in the assay is half-maximal. By IC50 is commonly meant the concentration at which inhibition is half-maximal. As to `CCC(=O)NC(c1ccc(C)cc1)c1ccc2cccnc2c1O` (stereo not given), the concentration for a half-maximal effect (EC50) in the experiment “cells [3]” was 4.3 µM (active); in experiment [1] it was 0.481 µM (active); in “cells [4]” it was > 350 µM (not active); in experiment [2] it was 0.687 µM (active). The values for the AC50 in experiment [5] and in experiment [6] were 3.35 µM (active) and 1.24 µM (active), respectively. For the same molecule, the IC50 in the experiment on Jurkat was 3.26 µM (active).

Take `CCCC(=O)NC(c1ccc(Cl)cc1)c1ccc2cccnc2c1O` (stereo not given): the concentration giving a half-maximal response (EC50) in the experiment “cells [3]” was 5.77 µM (active); on Streptokinase A, > 150 µM (not active); in experiment [1], 0.226 µM (active); in the experiment “cells [4]”, > 350 µM (not active); in [2], 0.425 µM (active); with Streptococcus, 30.1 µM (active). In addition, the results for the half-maximal activity concentration (AC50) in experiment [5] and in [6] were 4.04 µM (active) and 1.17 µM (active), respectively. For the same molecule, in the experiment on Jurkat, the IC50 was 2.84 µM (active).
